Experimental data reported in patent US12122775B1, “Substituted pyrido[4,3-e]pyrrolo[1,2-a]pyrazines as CK2 inhibitors” (KING FAISAL UNIVERSITY, priority 2024, dated 2024).
pIC50: −log10 of the molar value.

How the values were obtained:
[1] = system: HCT116 (colon); assay: In vitro cytotoxic activity MTT assay, HCT116; type: cell-based; conditions: Homo sapiens, HCT-116; HCT116 (colon) cells, exposed for 96 hours; read-out: Cytotoxicity activity IC50 (50% inhibition of cell proliferation)
Procedure: (§1) Compounds 1-16 were screened for their in vitro cytotoxic activity utilizing a 3-(4,5-dimethyl-thiazol-2-yl)-2,5-diphenyltetrazolium bromide (MTT) assay against selected cancer human cell lines consisting of PC3 (prostate), HCT116 (colon), A375 (melanoma), H1299 (lung), MIAPaCa-2 (pancreas), HL60 (leukemia), MCF7 (breast), MDA-MB-231 (breast) (T. Mosmann, J. Immunol. Meth., 1983, 65, 55-63). The cells were cultured at 37° C. in RMPI1640 medium supplemented with 10% fetal bovine serum, 50 IU/mL penicillin, and 50 μg/mL streptomycin in a 5% CO2 incubator. All cells were sub-cultured 3 times/week by trypsinisation. Viable cells were seeded and allowed to adhere for 12 hours before a test drug was added in 96-well plates at an initial density of 1.0×10^5 cells/mL. Tumor cell lines were separately exposed to various concentrations of the tested compounds followed by incubation at a temperature of 37° C. during 96 hours inside a medium of fresh RMPI 1640. Cells were subsequently incubated at 37° C. using MTT at 0.5 mg/mL during 4 hours. After removal of supernatant, formazan crystals were dissolved in isopropanol and the optical density was measured at 570 nm. CX-4945 was used as a positive control.

[2] = system: H1299 (lung); assay: In vitro cytotoxic activity MTT assay, H1299; type: cell-based; conditions: Homo sapiens, NCI-H1299; H1299 (lung) cells, exposed for 96 hours; read-out: Cytotoxicity activity IC50 (50% inhibition of cell proliferation)
Procedure: as §1

[3] = system: A375 (melanoma); assay: In vitro cytotoxic activity MTT assay, A375; type: cell-based; conditions: Homo sapiens, A-375; A375 (melanoma) cells, exposed for 96 hours; read-out: Cytotoxicity activity IC50 (50% inhibition of cell proliferation)
Procedure: as §1

[4] = system: HL60 (leukemia); assay: In vitro cytotoxic activity MTT assay, HL60; type: cell-based; conditions: Homo sapiens, HL-60; HL60 (leukemia) cells, exposed for 96 hours; read-out: Cytotoxicity activity IC50 (50% inhibition of cell proliferation)
Procedure: as §1

[5] = system: PC3 (prostate); assay: In vitro cytotoxic activity MTT assay, PC3; type: cell-based; conditions: Homo sapiens, Prostate cell; PC3 (prostate) cells, exposed for 96 hours; read-out: Cytotoxicity activity IC50 (50% inhibition of cell proliferation)
Procedure: as §1

[6] = molecular target: T1, recombinant human CK2 (RRββ-holoenzyme) (Homo sapiens, UniProt P68400); assay: CK2 Kinase Assay (radiometric, [γ-33P] ATP); type: biochemical; conditions: final ATP concentration 15 μM, 10 min at 30° C., eight concentrations; read-out: protein kinase CK2 activity IC50
T1 construct: purchased Millipore
T1 sequence (P68400 whole entry): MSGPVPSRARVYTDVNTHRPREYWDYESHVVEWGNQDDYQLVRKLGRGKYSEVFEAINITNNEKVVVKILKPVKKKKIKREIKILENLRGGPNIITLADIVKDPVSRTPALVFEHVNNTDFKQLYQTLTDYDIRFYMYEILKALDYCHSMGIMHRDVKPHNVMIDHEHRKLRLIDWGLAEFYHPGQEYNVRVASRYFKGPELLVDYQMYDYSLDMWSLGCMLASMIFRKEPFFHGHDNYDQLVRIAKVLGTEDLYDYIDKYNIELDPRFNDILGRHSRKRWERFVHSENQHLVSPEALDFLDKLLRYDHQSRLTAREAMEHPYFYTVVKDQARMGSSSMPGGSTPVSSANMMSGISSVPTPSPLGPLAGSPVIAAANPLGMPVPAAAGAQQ
T1 sequence (P67870 whole entry partner): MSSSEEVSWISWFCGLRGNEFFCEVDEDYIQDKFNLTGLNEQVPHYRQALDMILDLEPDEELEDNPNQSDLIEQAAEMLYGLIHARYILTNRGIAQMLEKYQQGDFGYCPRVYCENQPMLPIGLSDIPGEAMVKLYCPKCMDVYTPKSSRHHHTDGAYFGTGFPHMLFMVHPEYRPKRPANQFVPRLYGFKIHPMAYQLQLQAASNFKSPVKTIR
Procedure: CK2 Kinase Assay was conducted using the protocol as described in Pierre F. et al; J. Med. Chem. 2011, 54, 635-654. The tested compounds in aqueous solution were added at a volume of 10 μL to a reaction mixture comprising 10 μL of assay dilution buffer (ADB; 20 mM MOPS, pH 7.2, 25 mM β-glycerol phosphate, 5 mM EGTA, 1 mM sodium orthovanadate, and 1 mM dithiothreitol), 10 μL of substrate peptide (RRRDDDSDDD, dissolved in ADB at a concentration of 1 mM), 10 μL of recombinant human CK2 (RRββ-holoenzyme, 25 ng dissolved in ADB; Millipore). Reactions were initiated by the addition of 10 μL of ATP solution (90%75 mM MgCl2, 75 μM ATP (final ATP concentration: 15 μM) dissolved in ADB; 10% [γ-33P] ATP (stock 1 mCi/100 μL; 3000 Ci/mmol (Perkin-Elmer) and maintained for 10 min at 30° C. The reactions were quenched with 100 μL of 0.75% phosphoric acid and then transferred to and filtered through a phosphor cellulose filter plate (Millipore). After washing each well five times with 0.75% phosphoric acid, the plate was dried under vacuum for 5 min and, following the addition of 15 μL of scintillation fluid to each well, the residual radioactivity was measured using a Wallac […]. The IC50 values were derived from eight concentrations of test inhibitors.

[7] = system: MDA-MB-231 (breast); assay: In vitro cytotoxic activity MTT assay, MDA-MB-231; type: cell-based; conditions: Homo sapiens; MDA-MB-231 (breast) cells, exposed for 96 hours; read-out: Cytotoxicity activity IC50 (50% inhibition of cell proliferation)
Procedure: as §1

[8] = system: MIAPaCa-2 (pancreas); assay: In vitro cytotoxic activity MTT assay, MIAPaCa-2; type: cell-based; conditions: Homo sapiens, MIA PaCa-2; MIAPaCa-2 (pancreas) cells, exposed for 96 hours; read-out: Cytotoxicity activity IC50 (50% inhibition of cell proliferation)
Procedure: as §1

[9] = system: MCF7 (breast); assay: In vitro cytotoxic activity MTT assay, MCF7; type: cell-based; conditions: Homo sapiens; MCF7 (breast) cells, exposed for 96 hours; read-out: Cytotoxicity activity IC50 (50% inhibition of cell proliferation)
Procedure: as §1

`O=C(O)c1ccn2c1c(Nc1cccc(Cl)c1)nc1ccncc12` [Compound 1, 6-((3-chlorophenyl)amino)pyrido[4,3-e]pyrrolo[1,2-a]pyrazine-7-carboxylic acid] was tested, and the pIC50 [1] was 5.82, the pIC50 [2] was 5.68 and the pIC50 [3] was 5.34. For the same compound, the pIC50 [4] was 5.49, the pIC50 [5] was 5.55 and the pIC50 [6] was 7.04. It also gave a pIC50 [7] of 5.28, a pIC50 [8] of 5.77 and a pIC50 [9] of 5.23.
